Consider 8 substances from patent publication US7943139B2, “Methods of generating a humoral immune response against human immunodeficiency virus (HIV) comprising administering Nef apoptotic motif-containing polypeptide-conjugates” (priority 2004, dated 2011).

Experiment [1] relates to Jurkat cell cultures. Put plainly: Nef peptide apoptosis screen (TUNEL). Type of experiment: cell-based. The following applies: 24 hours; for apoptosis induced by Nef 20 mer peptides: 10 ng/ml. As for the experimental part:
Apoptosis generates DNA free ends which can be labeled in situ using terminal deoxynucleotidyl-transferase (TdT), incorporating an exogenously added labeled nucleotide to the DNA strand. This label can then be visualized directly by fluorescence or indirectly using anti-FITC-peroxidase, and a calorimetric assay. Cells on coverslips were washed with PBS, and fixed for 30 minutes at RT with 4% paraformaldehyde, in PBS, pH 7.4. They were then washed with PBS, and permeabilized with 0.1% Triton X-100 for 10 minutes at room temperature (RT). The slides were rinsed twice with PBS, and air dried for 2 minutes. Then, we followed precisely the manufacturers procedure for TUNEL staining the slides (manufacturer's procedure for the In Situ Cell Death Detection Kit, AP; Boehringer Mannheim, Indianapolis, Ind.). Total cell counts were determined by counterstaining fixed cultures with 20 μg/ml of Hoechst 33258. All specimens were observed by epifluorescence on a computer-controlled microscope system based on a Zeiss Axioskop microscope (Carl Zeiss, Thornwood, N.Y.), and the images were obtained and examined using a charged coupled device (CCD) camera, MagnaFire, model S99806 (Olympus American, Melville, N.Y.). Images were examined using Image-Pro Plus 4.1 for Windows (Media Cybernetics, Silver Springs, Md.) software.
Nef peptides retain much of the binding and signaling activity of the full molecule. A set of 20 mer peptides with 10 aa overlaps, spanning the Nef protein (205 aa), were obtained from the AIDS Reagent Program. Jurkat cell cultures were exposed to each of the Nef peptides at 10 ng/ml for 24 hours, and screened for apoptosis. One peak of apoptosis was observed spanning peptide aa31-50 to […], peaking at aa41-60 and aa51-70. […] Two regions of the Nef protein that induce apoptosis were identified; (1) a major apoptotic peak centering on aa50-60 (motif 1); (2) a minor peak centering on aa170-180 (motif 2). (aa sequence from HIV-1B clade NL403, Ass. No. AF070521) To determine the specificity of the apoptotic motifs, two 11 mer peptides spanning motif 1, were made, one with the correctly ordered sequence (Nef Motif 1-[…]) (Seq. ID No. 17), and the other with the correct amino acids scrambled in random order (Nef scMotif 1-[…]) (Seq. ID No. 18). Jurkat cell cultures were exposed to each of the two peptides at 8 ng/ml for 24 hours, and screened for apoptosis by TUNEL assay. Nef Motif 1 peptide induced 82% of the apoptosis observed using the full Nef protein. […] Thus, (a) Nef aa50-60 is sufficient to bind and induce an apoptotic signal; (b) induction of apoptosis is primary sequence specific. In some of the studies disclosed herein the Nef Motif 1 having an extra acid, namely […] (Seq. ID No. 19) was administered. In this report, Seq. ID No. 17 and Seq. ID No. 19 are both referred to as M-1 or Nef Motif-1 peptide.

The subject of experiment [2] is thymus. Put plainly: Mouse thymus apoptosis after ip peptide for one month. In kind it is in vivo, mice. Conditions: ip injection for one month. As for the experimental part:
Nef motif 1 was administered to mice for one month by ip injection with either Nef motif 1 (Seq. ID No. 19), the 11 mer sequence or the scrambled apoptotic sequence Seq. ID No. 18. […] This provides further indication of the ability of the Nef protein to inhibit immune response related to CD4+ peripheral blood lymphocytes.

Experiment [3] addresses T1, CXCR4 receptor (Homo sapiens, UniProt P61073).
T1 construct: transiently transfected with a CXCR4 cDNA clone; expressed in transfected cells; host or cells: MDA-MB-468 (human breast tumour line, lacks endogenous CXCR4), transient transfection
Put plainly: Fluorescent binding assay with Flc labeled M1 peptide on transfected MDA-MB-468 cells. As for the experimental part:
Specific physical binding to CXCR4 was assayed. The above transfection experiment (MDA-MB-468 cultures either untransfected, or transiently transfected with a CXCR4 cDNA clone, empty vector, or CCR5 cDNA clone) was assayed in the fluorescent binding assay with the Flc labeled M1 peptide.

Experiment [4] has as its system peripheral lymphocytes. Put plainly: KLH-M1 pre-immunization and Nef peptide challenge: PBL depletion and humoral response. Type of experiment: in vivo, mice. As for the experimental part:
Nef Motif 1 peptides linked to keyhole limpet […] (KLH) were administered to 9 mice. Subsequently, the pre-immunized mice and the naive mice were either unchallenged or challenged with Nef peptide for a month. The mice were sacrificed and the PBLs collected.

Where no end group is shown, it is not given here.

T1 sequence (P61073 whole entry): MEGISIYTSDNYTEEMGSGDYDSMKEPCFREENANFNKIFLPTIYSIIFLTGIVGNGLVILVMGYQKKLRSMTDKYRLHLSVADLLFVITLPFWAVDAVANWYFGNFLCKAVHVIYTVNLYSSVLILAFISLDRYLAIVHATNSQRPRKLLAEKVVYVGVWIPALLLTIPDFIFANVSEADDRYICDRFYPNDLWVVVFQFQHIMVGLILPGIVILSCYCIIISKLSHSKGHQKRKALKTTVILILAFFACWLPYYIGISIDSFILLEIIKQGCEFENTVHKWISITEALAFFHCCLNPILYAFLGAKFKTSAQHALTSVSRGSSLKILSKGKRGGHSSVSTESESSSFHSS

As for “ALAETCQNAWA [Nef scMotif 1, Motif 1 amino acids scrambled in random order, reference compound]”, the “apoptosis (TUNEL)” value in experiment [1] (8 ng/ml, compared with untreated control) is on record as “only background levels of apoptosis”. Moreover, the “apoptosis in the thymus” value in experiment [2] is “No apoptosis”.
Turning to “Flc-M1 peptide: Flc labeled M1 peptide used in the fluorescent binding assay (NAACAWLEAQ; also: Flc label, place not given here)”, the “binding of the Flc-M1 peptide” value in experiment [3] (MDA-MB-468 cells transiently transfected with CCR5 cDNA) is “refractory to binding”; in experiment [3] (MDA-MB-468 cells transiently transfected with empty vector), “refractory to binding”; in experiment [3] (MDA-MB-468 cells transiently transfected with the CXCR4 clone), “significant binding”; in experiment [3] (untransfected MDA-MB-468 cells), “refractory to binding”.
As for “NAACAWLEAQ [Nef Motif 1, Peptide spanning apoptotic motif 1 (aa50-60) of HIV-1 Nef]”, in experiment [4] (mice challenged with Nef peptide for a month, PBLs collected), the peripheral lymphocyte depletion result was “induced peripheral lymphocyte depletion”. Besides, the “protective humoral response against the Nef epitope” value in experiment [4] (mice, naive or pre-immunized) was “did not stimulate a resultant protective humoral response”. The “apoptosis relative to that observed using the full Nef protein” value in experiment [1] (8 ng/ml, TUNEL) stood at 82%.
Take “TNAACAWLEAQ [Nef motif 1 (Seq. ID No. 19)]”: in experiment [2], the “apoptosis in the thymus” value is “Significant apoptosis”.
“aa41-60: Nef 20 mer overlapping peptide, residues 41-60, AIDS Reagent Program (GAITSSNTAATNAACAWLEA; UniProt P04601 41-60, looked up, fragment)”: the “apoptosis induced by Nef 20 mer peptides” value in experiment [1] is “peaking”.
Same read-out and setting: to “aa51-70: Nef 20 mer overlapping peptide, residues 51-70, AIDS Reagent Program” belongs “peaking”; to “aa161-180: Nef 20 mer overlapping peptide, residues 161-180, AIDS Reagent Program (NTSLLHPVSLHGMDDPEREV; UniProt P04601 161-180, looked up, fragment)”, “second, smaller apoptotic peak”.
The same measure, in the same setting: to “aa171-190: Nef 20 mer overlapping peptide, residues 171-190, AIDS Reagent Program (HGMDDPEREVLEWRFDSRLA; UniProt P04601 171-190, looked up, fragment)” belongs “second, smaller apoptotic peak”.
